What was measured:
[1] = in situ perfusion method of the rectum (perfusate recirculated through the rat rectum; drug remaining in the perfusate)
Method: In this experiment, the amount of remaining theophylline, originally at a concentration of about 200 mg/ml, in aqueous solution and continually recirculated or perfused to the rectal compartment of the rat, at the end of one hour, is shown as the lower plot for studies carried out in the presence of 0.2% sodium salicylate, is shown as the upper plot.
A second cannula is inserted through the anus 1 cm inside the rectum and secured by ligation. Thus, about 2 cm of the rectum is exposed to the perfusate. The perfustate (6 ml) is circulated at a rate of 2 ml/min at 38°C. As perfustate, 1/15 M-phosphate buffer solutions are used and the ionic strength of the perfusate is adjusted to 0.75 with sodiumchloride as necessary. […] The amount of drug remaining in the perfusate is analyzed as a function of time by appropriate methods, e.g., by high-pressure liquid chromatography.
A second cannula is inserted through the anus 1 cm. inside the rectum and secured by ligation. Thus, about 2 cm of the rectum is exposed to the perfusate. The perfusate (6 ml) is circulated at a rate of 2 ml/min at 38°C. As perfusate, 1/15 M-phosphate buffer solutions are used and the ionic strength of the perfusate is adjusted to 0.75 with sodium chloride as necessary. […] The amount of drug remaining in the perfusate is analyzed as a function of time by appropriate methods, e.g. by high-pressure liquid chromatography.

[2] = dog, in vivo
Method: Four male beagle dogs weighing 9.5-11 kg are used and are fasted for two days prior to experimentation. Witepsol H-15 is used as an excipient to prepare the suppository formulation of cefmetazole. Microenema formulations are prepared with aqueous 0.02M phosphate buffer with a final pH of 7.4. Either a 1 g suppository or a 1 ml microenema is given to each dog. The formulations may contain varying amounts of adjuvant. Blood samples are taken from the foreleg vein at predetermined sampling times after dosing. Blood samples are heparinized and centrifuged at 3,000 rpm for 10 minutes. The concentration of cefmetazole in the plasma of the dogs is analyzed as a function of time using plasma aliquots for the assay of cefmetazole.

O=C(O)c1cc(O)ccc1O [gentisic acid]
adjuvant effect on the rectal absorption ([1]; Figure 4 (theophylline)): evident

CO[C@@]1(NC(=O)CSCC#N)C(=O)N2C(C(=O)O)=C(CSc3nnnn3C)CS[C@@H]21 [cefmetazole, Cefmetazole]
bioavailability, suppository formulations versus microenema formulations [2]: greater bioavailability | rectal absorption of cefmetazole [2]: significantly enhanced

Cn1c(=O)c2[nH]cnc2n(C)c1=O [theophylline, 3,7-Dihydro-1,3-dimethyl-1H-purine-2,6-dione]
effect of the salicylate on the rate of absorption of theophylline from the rectal compartment ([1]; Figure 1, theophylline about 200 mg/ml aqueous solution, amount remaining at end of one hour, 0.2% sodium salicylate, effect greatest below pH 5.5 and above pH 7.5): marked effect
